Patent publication US20190112272A1, “SYNTHETIC RETINOIDS FOR USE IN RAR MEDIATED CONDITIONS” (High Force Research Limited, priority 2016, published 2019)
Values belong to the molecule of their own block, whether it stands above or below them.

Experiments:
[1] = target: ERK 1/2 phosphorylation; experiment: Induction of ERK 1/2 phosphorylation (non-genomic response); assay type: cell-based; conditions: for kinase activity (ERK 1/2 phosphorylation, non-genomic response): result in words
Experimental: (§1) (b) The influence of a low concentration of retinoids on number of neurites from SH-SS5Y cells was determined.
(§2) The action of retinoic acid in the brain, the relative importance of genomic versus non-genomic activity of retinoic acid was investigated by determining whether some RAR ligands preferentially activated one pathway. Retinoic acid (FIG. 1) was used as a compound known to induce both genomic and non-genomic pathways of retinoic acid signalling. We measured its relative activity as an inducer of gene transcription using a construct in which the promoter element to which the retinoic acid receptor binds (retinoic acid response element, RARE) drives a LacZ reporter (genomic response). This was compared to a cell based assay to measure induction of ERK 1/2 phosphorylation (non-genomic response).

[2] = system: retinoic acid response element (RARE) driven LacZ reporter in Sil-15 reporter cells (F9-RARE-lacZ cells); experiment: RARE-driven LacZ reporter gene assay (genomic response, Sil-15 reporter cells, X-Gal assay); assay type: cell-based; conditions: for activation of transcription via a RARE (genomic response): Sil-15 reporter cells, result in words
From the text: as §2
Sil-15 reporter cells (also called F9-RARE-lacZ cells) were used in the X-Gal Assay. This cell line was derived from a stable transfection of F9 teratocarcinoma cells with a plasmid containing the LacZ gene under the control of a promoter linked to a retinoic acid response element (RARE). These cells were used to visually detect and semi-quantify the transcriptional activity of retinoic acid and other retinoids by monitoring β-galactosidase activity produced by the reporter cells in response to the retinoic acid/retinoids in the surrounding medium.
Sil-15 cells were plated in a 0.1% gelatin-coated 96-well plate and grown to about 85-90% confluence in Dulbecco's modified Eagle's medium (DMEM) containing 10% foetal calf serum and 0.8 mg/ml G418 sulfate for selection.
Serial dilutions of retinoids were prepared from the stock solutions under a red/orange light. A standard curve of RA was included in the experiment as a positive control. The RA/chemicals dilutions were added above the seeded Sil-15 cells in the 96-well plate and then the plate was wrapped with aluminium foil and incubated overnight in a humid atmosphere containing 5% CO2 at 37° C. All the concentrations for the RA and the two chemicals were tested in triplicates.
The next day, Sil-15 cells were washed twice with 1× PBS, fixed with 100 μl per well of 1% glutaraldehyde fixation solution for 15 minutes, washed again two times with 1× PBS and finally β-galactosidase activity was visualized by adding 100 μl of a freshly prepared X-Gal developing solution (5-bromo-4-chloro-3-indolyl-β-d-galactopyranoside) to each well. The plate was incubated overnight at 37° C. in 5% CO2. The plate was read on an Emax microplate reader at 650 nm.

[3] = target: T1, Cellular Retinoic Acid Binding Protein II (CRABPII) (Homo sapiens, UniProt P29373); experiment: Fluorometric competitive binding titration of DC271 in CRABPII
T1 sequence (P29373 1-138): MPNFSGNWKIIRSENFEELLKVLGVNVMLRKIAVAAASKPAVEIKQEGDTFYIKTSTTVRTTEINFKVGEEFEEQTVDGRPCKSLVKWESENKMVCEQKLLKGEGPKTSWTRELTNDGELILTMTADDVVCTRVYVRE
From the text: A number of highly fluorescent analogues of retinoic acid (ATRA) have been synthesised at Durham University for use in a variety of imaging and biophysical studies. The fluorescence emission of these fluorescent retinoids, including DC271, is highly solvatochromatic and the intensity of this emission is strongly dependent on environment. Therefore, in a nonpolar solvent, the emission is blue shifted (425-500 nm) and intense, while in a polar solvent the emission is red shifted (500-600 nm) and weak (severely quenched in water). […] When EC23® is titrated against CRABPII-DC271 complex the reduction in fluorescence emission intensity can be used to produce a competition binding curve allowing the estimation of the Ki (inhibition constant) of the competition of EC23® for DC271 bound to CRABPII. […] For the competition with EC23® a solution of [DC271] =49.8 nM and [CRABPII]=75 nM was prepared in PBS buffer (20 mM K2HPO4, 100mM KCl, pH 7.4 buffer) and the fluorescence intensity was measured at 450 nm with excitation at 380 nm. […] The emission intensity of DC271 was plotted against Log[EC23], and a one site competitive binding model was fit to the resultant data (FIG. 5). This provided an estimation of the Log Ki of the competitive binding reaction (Table 1).

[4] = system: SH-SY5Y cells; experiment: Neurite outgrowth screening assay in SH-SY5Y cells; assay type: cell-based; conditions: for effect on number of neurites compared to control: 10 nM retinoid, SH-SY5Y cells
Experimental: as §1

[5] = system: SH-SY5Y cells; experiment: Cell number / cell survival of SH-SY5Y cells; assay type: cell-based; conditions: 10 nM, compared to same concentration of retinoic acid
[6] = Induction of own catabolism in vivo; conditions: unlike retinoic acid
[7] = Photostability; assay type: physicochemical

- kinase activity (ERK 1/2 phosphorylation, non-genomic response) [1]: has significant kinase activity
SMILES: COCCOCOc1cc2ccc(-c3ccc(C(=O)O)cc3)cc2cc1C12CC3CC(CC(C3)C1)C2 [CD2665]
- activation of transcription via a RARE (genomic response) [2]: shows no sign of activity to regulate gene expression via a RARE

- Kd ([3]; direct binding of the fluorescent retinoid, read-out: dissociation constant against CRABPII, Kd): 49.1 ± 2.6 nM
SMILES: CC(C)N1CCC(C)(C)c2cc(C#Cc3ccc(C(=O)O)cc3)ccc21 [DC271]

- EC50 ([1]; 95% confidence interval 32.8 nM to 138.8 nM, read-out: mean EC50, ERK 1/2 kinase phosphorylation): 67.5 nM
- EC50 ([2]; RARE-LacZ reporter, 95% confidence interval 90.7 pM to 391.4 pM, read-out: mean EC50, genomic activation): 0.188 nM
SMILES: CC1=C(/C=C/C(C)=C/C=C/C(C)=C/C(=O)O)C(C)(C)CCC1 [ATRA, all-trans-retinoic acid]
- activation of transcription via a RARE (genomic response) [2]: induces gene transcription of a RAR driven reporter gene
- effect on number of neurites compared to control [4]: no significant effect
- neurite outgrowth ([4]; SH-SY5Y cell line, preliminary results, result in words): promotes neurite outgrowth

- Ki ([3]; competition with DC271 49.8 nM, CRABPII 75 nM, PBS pH 7.4, one site model): 3.16 nM
- photostability [7]: photostable
SMILES: CC1(C)CCC(C)(C)c2cc(C#Cc3ccc(C(=O)O)cc3)ccc21 [EC23®, 4-(5,5,8,8-tetramethyl-5,6,7,8-tetrahydro-naphthalen-2-ylethynyl) benzoic acid]
- number of SH-SY5Y cells [5]: greatly enhances the number of SH-SY5Y cells
- induction of its own catabolism in vivo [6]: does not induce its own catabolism in vivo
- capacity to induce ERK phosphorylation (western blotting of phosphorylated ERK) ([1]; 10 μM, after 20 minutes, versus same concentration of retinoic acid): much greater in its capacity to induce ERK phosphorylation than the same concentration of retinoic acid
- fold greater activity than retinoic acid (ATRA) in transactivation of a RAR driven reporter gene ([2]; relative to retinoic acid (ATRA)): up to 500 fold
- effect on number of neurites compared to control [4]: strong and significant effect

- kinase activity (ERK 1/2 phosphorylation, non-genomic response) [1]: does not activate kinase activity
SMILES: C/C(=C\c1ccc(C(=O)O)cc1)c1ccc2c(c1)C(C)(C)CCC2(C)C [TTNPB]
- activation of transcription via a RARE (genomic response) [2]: can potently activate transcription via a RARE
